Legend:
Calvarial cell = assay: Cytotoxicity test (MTT) in osteoblasts (calvarial cells); settings: 1 μM, 72 hours, vs vehicle control
Procedure: Drugs were diluted to a concentration of 2 μM in α-MEM culture media supplemented with 10% FBS. The vehicle control group was established to contain 0.2% DMSO. 100 μL/well of the diluted drugs were dispensed into 96-well plates to which osteoblasts (calvarial cells) prepared in Experimental Example 1 were then added at a density of 1.0×10^4 cells/100 μL/well. Here, the final compound concentration in the cell culture was 1 μM, and the vehicle control group contained 0.1% DMSO. The cells were cultured in a 5% CO2 inhibitorr at 37° for 72 hours. 25 μL of 3-(4,5-dimethyl-2-thiazolyl)-2,5-diphenyl-2H-tetrazolium bromide (MTT) dissolved in PBS (2 mg/mL) was added to each cell culture 4 hours before the end of culture. After completion of the reaction, the plates were centrifuged, the media were discarded, and 100 μL of formazan was added and dissolved in dimethyl sulfoxide (DMSO). Finally, the absorbance of the developed plates was measured at 540 nm. The cell viability was expressed as % concentration in comparison with the vehicle control group.

[1] = tested on: osteoclastogenesis (formation of multinucleated osteoclasts); assay: Osteoclastogenesis inhibition via co-culture system (bone marrow cells + osteoblasts, TRAP staining); assay type: cell-based, mouse; settings: Mus musculus, Osteoclast, 168 h, 7 days co-culture, vs vehicle control
Procedure: Osteoclastogenesis inhibitory effects of the compounds of the present invention were evaluated via a co-culture system (Reference: Endocrinology 137(1996), 2187 to 2190, E. Jimi et al.). A specific experimental method is as follows.
1) Preparation of Bone Marrow Cells and Osteoblasts
Femur and tibia were aseptically dissected from 6 to 8-week-old male ddY mice to harvest bone marrow cells by a conventional method using a syringe. In brief, tissues were removed from the dissected bone, the bone ends were cut off with scissors, and the bone marrow was isolated by pushing a medium-containing syringe (23G) against the one end of the cut bone. The isolated bone marrow was subjected to repeated piston movement of a syringe such that single cells were obtained (Reference: Endocrinology 123(1988), 2600 to 2602, Takahashi et al.). After removal of red blood cells within the bone marrow, the bone marrow cells recovered by centrifugation were placed in an α-MEM supplemented with 10% fetal bovine serum (FBS), followed by counting of nucleated cells and then were immediately used for a co-culture system.
For the preparation of osteoblasts (Calvarial cells), the cranial bone were aseptically dissected from 1 to 2-day-old neonatal ICR mice and subjected to continuous reaction with a 0.2% collagenase solution to separate osteoblasts. The cell-suspended supernatant was centrifuged to recover osteoblasts which were grown to full confluence in an α-MEM supplemented with 10% FBS and then diluted to a desired cell density for use in the experiment.
2) Osteoclastogenesis Inhibition Experiment Via Co-Culture System
As the medium used for a co-culture system, a differentiation medium with the addition of differentiation factors 1α,25-dihydroxyvitamin D3 (10^−8M) and dexamethasone (10^−8M) to α-MEM supplemented with 10% FBS was used for the induction of osteoclastogenesis. First, the compounds of the present invention dissolved in dimethyl sulfoxide (DMSO) at a concentration of 1 mM were diluted to 2 μM using the above-mentioned differentiation medium. As a vehicle control group, 0.2% (v/v) DMSO was added to the medium. 100 μL/well of each medium was added to 96-well plates. In addition, the above prepared bone marrow cells and osteoblasts were plated onto 96-well plates at a density of 1×10^5 cells/50 μL/well and 3×10^3 cells/50 μL/well, respectively. The total volume/well was 200 μL and the final compound concentration was 1 μM. The control group was 0.1% (v/v) DMSO. The cells were cultured with exchange of the culture media with fresh media containing differentiation factors and test materials (materials containing the compounds of the present invention) at an interval of 2 to 3 days.
7 days after culturing of cells, the formation of multinucleated osteoclasts was confirmed by microscopic examination, the medium was removed from the wells and then the cells were fixed in a 10% phosphate-buffered formalin solution. The degree of formation of mature osteoclasts was measured taking advantage of the characteristics of osteoclasts showing a positive reaction to a tartrate-resistant acid phosphatase (TRAP) staining solution. The TRAP staining solution was prepared in a manner such that naphthol AS-MS phosphate as a substrate and a coloring agent (Fast Red Violet LB salt) were dissolved in N,N-dimethylformamide, and a 0.1N NaHCO3 buffer solution containing 50 mM of tartaric acid was added thereto. Among the TRAP-positive cells under a light microscope, multinucleated osteoclasts having 6 to 7 nuclei were regarded as mature osteoclasts.
The degree of inhibition of osteoclastogenesis was calculated according to the following equation 1. The results are summarized in Table 2 below (Experiments were carried out for 4 wells/experimental group (n=4), and the results are given in terms of mean±standard deviation) […]

| Compound | Cell viability (%) Calvarial cell (Calvarial cell) [%] | inhibition at 1 µM [1] [%] |
| --- | --- | --- |
| CN1CCN(Nc2ccc([N+](=O)[O-])c(Nc3ccc4[nH]ncc4c3)n2)CC1 [Compound 42, 2-(1H-indazol-5-yl)amino-6-[(4-methylpiperazin-1-yl)amino]-3-nitropyridine] | 106 |  |
| CC1(C)CN(c2ccc([N+](=O)[O-])c(Nc3ccc4[nH]ncc4c3)n2)CC(C)(C)N1 [Compound 13, 2-(1H-indazol-5-yl)amino-6-(2,2,6,6-tetramethylpiperazin-4-yl)-3-nitropyridine] | 94 | 88 |
| C[C@@H](CO)Nc1ccc([N+](=O)[O-])c(Nc2ccc3cn[nH]c3c2)n1 [Compound 18, 2-(1H-indazol-6-yl)amino-6-[(1-(S)-methyl-2-hydroxyethyl)-amino]-3-nitropyridine] | 98 |  |
| Cc1cncn1-c1ccc([N+](=O)[O-])c(Nc2ccc3[nH]ncc3c2)n1 [Compound 4, 2-(1H-indazol-5-yl)amino-6-(5-methylimidazol-1-yl)-3-nitropyridine] | 101 | 67 |
| O=[N+]([O-])c1ccc(NCCN2CCOCC2)nc1Nc1ccc2cn[nH]c2c1 [Compound 28, 2-(1H-indazol-6-yl)amino-6-(2-morpholinoethylamino)-3-nitropyridine] | 104 | 74 |
| O=[N+]([O-])c1ccc(N2CCNCC2)nc1Nc1ccc2cn[nH]c2c1 [Compound 38, 2-(1H-indazol-6-yl)amino-6-(piperazin-1-yl)-3-nitropyridine] | 91 | 90 |
| NC1CCCCC1Nc1ccc([N+](=O)[O-])c(Nc2ccc3[nH]ncc3c2)n1 (centres unmarked) [Compound 30, 2-(1H-indazol-5-yl)amino-6-[(2-aminocyclohexyl)amino]-3-nitropyridine] | 114 | 100 |
| NCCCCNc1ccc([N+](=O)[O-])c(Nc2ccc3[nH]ncc3c2)n1 [Compound 50, 2-(1H-indazol-5-yl)amino-6-(4-amino-n-butylamino)-3-nitropyridine] | 95 | 100 |
| O=[N+]([O-])c1ccc(NCc2ccncc2)nc1Nc1ccc2[nH]ncc2c1 [Compound 47, 2-(1H-indazol-5-yl)amino-6-[(4-pyridyl)methylamino]-3-nitropyridine] | 102 | 71 |
| CN1CCN(c2ccc([N+](=O)[O-])c(Nc3ccc4cn[nH]c4c3)n2)CC1 [Compound 40, 2-(1H-indazol-6-yl)amino-6-(4-methylpiperazin-1-yl)-3-nitropyridine] | 95 |  |
| CNc1ccc([N+](=O)[O-])c(Nc2ccc3cn[nH]c3c2)n1 [Compound 31, 2-(1H-indazol-6-yl)amino-6-(methylamino)-3-nitropyridine] | 97 |  |
| O=[N+]([O-])c1ccc(NCCc2c[nH]cn2)nc1Nc1ccc2[nH]ncc2c1 [Compound 48, 2-(1H-indazol-5-yl)amino-6-[(imidazol-4-yl)ethylamino]-3-nitropyridine] | 96 |  |
| Nc1ccc([N+](=O)[O-])c(Nc2ccc3[nH]ncc3c2)n1 [Compound 32, 2-(1H-indazol-5-yl)amino-6-amino-3-nitropyridine] | 99 | 100 |
| O=[N+]([O-])c1ccc(NCCc2ccccn2)nc1Nc1ccc2[nH]ncc2c1 [Compound 27, 2-(1H-indazol-5-yl)amino-6-[(2-pyridyl)ethylamino]-3-nitropyridine] | 97 | 90 |
| O=[N+]([O-])c1ccc(NCc2cccnc2)nc1Nc1ccc2cn[nH]c2c1 [Compound 46, 2-(1H-indazo-6-yl)amino-6-[(3-pyridyl)methylamino]-3-nitropyridine] | 99 |  |
| CC1CN(c2ccc([N+](=O)[O-])c(Nc3ccc4[nH]ncc4c3)n2)CC(C)N1 (centres unmarked) [Compound 44, 2-(1H-indazol-5-yl)amino-6-(3,5-dimethylpiperazin-1-yl)-3-nitropyridine] | 96 | 90 |
| Cc1nccn1-c1ccc([N+](=O)[O-])c(Nc2ccc3[nH]ncc3c2)n1 [Compound 2, 2-(1H-indazol-5-yl)amino-6-(2-methylimidazol-1-yl)-3-nitropyridine] | 104 | 70 |
| C[C@@H](CO)Nc1ccc([N+](=O)[O-])c(Nc2ccc3[nH]ncc3c2)n1 [Compound 36, 2-(1H-indazol-5-yl)amino-6-[(1-(S)-methyl-2-hydroxyethyl)-amino]-3-nitropyridine] | 103 | 72 |
| O=[N+]([O-])c1ccc(NCCCn2ccnc2)nc1Nc1ccc2[nH]ncc2c1 [Compound 29, 2-(1H-indazol-5-yl)amino-6-[3-(imidazol-1-yl)propylamino]-3-nitropyridine] | 117 | 73 |
| O=[N+]([O-])c1ccc(N2CCC(O)CC2)nc1Nc1ccc2cn[nH]c2c1 [Compound 41, 2-(1H-indazol-6-yl)amino-6-(4-hydroxypiperidino)-3-nitropyridine] | 98 |  |
| CC(C)(C)NNc1ccc([N+](=O)[O-])c(Nc2ccc3[nH]ncc3c2)n1 [Compound 43, 2-(1H-indazol-5-yl)amino-6-[(t-butylamino)amino]-3-nitropyridine] | 100 |  |
| NC1CCN(c2ccc([N+](=O)[O-])c(Nc3ccc4[nH]ncc4c3)n2)CC1 [Compound 51, 2-(1H-indazol-5-yl)amino-6-[(4-amino)piperidino]-3-nitropyridine] | 73 |  |
| O=[N+]([O-])c1ccc(N2CCN(CCO)CC2)nc1Nc1ccc2[nH]ncc2c1 [Compound 15, 2-(1H-indazol-5-yl)amino-6-[4-(2-hydroxyethyl)piperazin-1-yl]-3-nitropyridine] | 90 | 98 |
| O=[N+]([O-])c1ccc(NCc2cccnc2)nc1Nc1ccc2[nH]ncc2c1 [Compound 45, 2-(1H-indazol-5-yl)amino-6-[(3-pyridyl)methylamino]-3-nitropyridine] | 103 |  |

Source: patent publication US20110306641A1, “NOVEL 2,6-SUBSTITUTED-3-NITROPYRIDINE DERIVATIVE, METHOD FOR PREPARING SAME, AND PHARMACEUTICAL PREPARATION INCLUDING SAME” (priority 2008, published 2011)
